Assay results published in PubChem BioAssay AID2060326 (Molecular Pharmacology Branch, DTP, NCI, 2025).

Test system: MDA-MB-468 multi-cell spheroids, viability
Assay: Anticancer human tumor MDA-MB-468 cell line growth inhibition [IpAb];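 also: spheroids exposed to agents for seven days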;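 as to viability, T/C: 100% = DMSO vehicle control viability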
Details: for IC50: curve of first compound; for viability, T/C: stronger effect = lower value
Outline: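 Multi-cell spheroids of 60% tumour cells, 25% HUVEC and 15% MSC in ultra-low-attachment U-bottom wells, treated with agents combined with ipatasertib or abemaciclib. Half-log ranges top out near clinical Cmax, or 10 microM when Cmax is unknown.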

[1] = second compound 0.1 µM, first compound 0.0316 µM
[2] = second compound 0.1 µM, first compound 0.1 µM
[3] = second compound 0.316 µM, first compound 0.0316 µM
[4] = second compound 0.316 µM, first compound 0.1 µM
[5] = second compound 1 µM, first compound 0.0316 µM
[6] = second compound 1 µM, first compound 0.1 µM

Cn1ncnc1[C@H]1c2n[nH]c(=O)c3cc(F)cc(c23)N[C@@H]1c1ccc(F)cc1 + CC(C)NCC(C(=O)N1CCN(c2ncnc3c2C(C)CC3O)CC1)c1ccc(Cl)cc1
IC50 (second compound 0.1 µM): > 0.1 µM | IC50 (second compound 0.316 µM): > 0.1 µM | IC50 (second compound 1 µM): 0.0179 µM | IC50 (second compound 3.16 µM): < 0.000316 µM | IC50 (second compound 10 µM): < 0.000316 µM | viability, T/C (second compound 0.1 µM, first compound 0.000316 µM): 101% | viability, T/C (second compound 0.1 µM, first compound 0.001 µM): 102% | viability, T/C (second compound 0.1 µM, first compound 0.00316 µM): 86.9% | viability, T/C (second compound 0.1 µM, first compound 0.01 µM): 73.8% | viability, T/C [1]: 85.8% | viability, T/C [2]: 65.7% | viability, T/C (second compound 0.316 µM, first compound 0.000316 µM): 62% | viability, T/C (second compound 0.316 µM, first compound 0.001 µM): 70.7% | viability, T/C (second compound 0.316 µM, first compound 0.00316 µM): 62.1% | viability, T/C (second compound 0.316 µM, first compound 0.01 µM): 60.2% | viability, T/C [3]: 55.5% | viability, T/C [4]: 57.7% | viability, T/C (second compound 1 µM, first compound 0.000316 µM): 60.8% | viability, T/C (second compound 1 µM, first compound 0.001 µM): 59.2% | viability, T/C (second compound 1 µM, first compound 0.00316 µM): 55.1% | viability, T/C (second compound 1 µM, first compound 0.01 µM): 54.2% | viability, T/C [5]: 46.2% | viability, T/C [6]: 41.8% | viability, T/C (second compound 3.16 µM, first compound 0.000316 µM): 38.9% | viability, T/C (second compound 3.16 µM, first compound 0.001 µM): 37.8% | viability, T/C (second compound 3.16 µM, first compound 0.00316 µM): 40% | viability, T/C (second compound 3.16 µM, first compound 0.01 µM): 34.9% | viability, T/C (second compound 3.16 µM, first compound 0.0316 µM): 34% | viability, T/C (second compound 3.16 µM, first compound 0.1 µM): 26.6% | viability, T/C (second compound 10 µM, first compound 0.000316 µM): 19.3% | viability, T/C (second compound 10 µM, first compound 0.001 µM): 22.5% | viability, T/C (second compound 10 µM, first compound 0.00316 µM): 18.6% | viability, T/C (second compound 10 µM, first compound 0.01 µM): 18.8% | viability, T/C (second compound 10 µM, first compound 0.0316 µM): 16% | viability, T/C (second compound 10 µM, first compound 0.1 µM): 15.6%

CC1(C)CCC(CN2CCN(c3ccc(C(=O)NS(=O)(=O)c4ccc(NCC5CCOCC5)c([N+](=O)[O-])c4)c(Oc4cnc5[nH]ccc5c4)c3)CC2)=C(c2ccc(Cl)cc2)C1 + CCN1CCN(Cc2ccc(Nc3ncc(F)c(-c4cc(F)c5nc(C)n(C(C)C)c5c4)n3)nc2)CC1
IC50 (second compound 0.01 µM): 3.13 µM | IC50 (second compound 0.0316 µM): 4.24 µM | IC50 (second compound 0.1 µM): 3.04 µM | IC50 (second compound 0.316 µM): 4.28 µM | IC50 (second compound 1 µM): 2.04 µM | viability, T/C (second compound 0.01 µM, first compound 0.0316 µM): 96.2% | viability, T/C (second compound 0.01 µM, first compound 0.1 µM): 81.1% | viability, T/C (second compound 0.01 µM, first compound 0.316 µM): 82.5% | viability, T/C (second compound 0.01 µM, first compound 1 µM): 85% | viability, T/C (second compound 0.01 µM, first compound 3.16 µM): 49.7% | viability, T/C (second compound 0.01 µM, first compound 10 µM): 10.2% | viability, T/C (second compound 0.0316 µM, first compound 0.0316 µM): 88.6% | viability, T/C (second compound 0.0316 µM, first compound 0.1 µM): 86.9% | viability, T/C (second compound 0.0316 µM, first compound 0.316 µM): 89.8% | viability, T/C (second compound 0.0316 µM, first compound 1 µM): 74.8% | viability, T/C (second compound 0.0316 µM, first compound 3.16 µM): 66.2% | viability, T/C (second compound 0.0316 µM, first compound 10 µM): 9.92% | viability, T/C [1]: 92.1% | viability, T/C [2]: 96.6% | viability, T/C (second compound 0.1 µM, first compound 0.316 µM): 105% | viability, T/C (second compound 0.1 µM, first compound 1 µM): 109% | viability, T/C (second compound 0.1 µM, first compound 3.16 µM): 48.1% | viability, T/C (second compound 0.1 µM, first compound 10 µM): 9.29% | viability, T/C [3]: 99.3% | viability, T/C [4]: 109% | viability, T/C (second compound 0.316 µM, first compound 0.316 µM): 94.9% | viability, T/C (second compound 0.316 µM, first compound 1 µM): 94.1% | viability, T/C (second compound 0.316 µM, first compound 3.16 µM): 64.1% | viability, T/C (second compound 0.316 µM, first compound 10 µM): 9.61% | viability, T/C [5]: 75.4% | viability, T/C [6]: 86.5% | viability, T/C (second compound 1 µM, first compound 0.316 µM): 78.8% | viability, T/C (second compound 1 µM, first compound 1 µM): 77.9% | viability, T/C (second compound 1 µM, first compound 3.16 µM): 32.9% | viability, T/C (second compound 1 µM, first compound 10 µM): 5.14%
